The target in one data set is T1, δ opioid receptor (Rattus norvegicus, UniProt P33533).
T1 construct: tissue Pel-Freeze Biological Inc. (Rogers, Ark.); host or cells: rat whole brain
Kind of data set: radioligand binding, δ opioid receptor, rat brain membranes. Conditions: cell marked (rat), tritium-labeled Deltorphin II.

The target of the next data set is T2, μ opioid receptor (Rattus norvegicus, UniProt P33535).
T2 construct: tissue Pel-Freeze Biological Inc. (Rogers, Ark.); host or cells: rat whole brain
T2 sequence (P33535 whole entry): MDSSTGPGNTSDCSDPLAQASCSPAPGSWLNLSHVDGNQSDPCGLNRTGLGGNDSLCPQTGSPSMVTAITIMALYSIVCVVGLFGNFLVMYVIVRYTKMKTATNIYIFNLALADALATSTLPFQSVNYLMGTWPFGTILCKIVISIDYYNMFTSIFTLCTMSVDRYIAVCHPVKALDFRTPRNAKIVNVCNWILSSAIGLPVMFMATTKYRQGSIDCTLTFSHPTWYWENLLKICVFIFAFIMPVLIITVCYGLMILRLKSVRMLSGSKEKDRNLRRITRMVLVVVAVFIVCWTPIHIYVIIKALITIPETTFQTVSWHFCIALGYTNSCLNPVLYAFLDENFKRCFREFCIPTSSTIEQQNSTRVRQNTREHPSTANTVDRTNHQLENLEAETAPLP
The experiment in a line: radioligand binding, μ opioid receptor, rat brain membranes. To be noted: cell marked (rat), tritium-labeled DAMGO.

Another data set deals with T3, κ opioid receptor (Cavia porcellus, UniProt P41144).
T3 construct: tissue Pel-Freeze Biological Inc. (Rogers, Ark.); host or cells: guinea pig cerebellum
T3 sequence (P41144 whole entry): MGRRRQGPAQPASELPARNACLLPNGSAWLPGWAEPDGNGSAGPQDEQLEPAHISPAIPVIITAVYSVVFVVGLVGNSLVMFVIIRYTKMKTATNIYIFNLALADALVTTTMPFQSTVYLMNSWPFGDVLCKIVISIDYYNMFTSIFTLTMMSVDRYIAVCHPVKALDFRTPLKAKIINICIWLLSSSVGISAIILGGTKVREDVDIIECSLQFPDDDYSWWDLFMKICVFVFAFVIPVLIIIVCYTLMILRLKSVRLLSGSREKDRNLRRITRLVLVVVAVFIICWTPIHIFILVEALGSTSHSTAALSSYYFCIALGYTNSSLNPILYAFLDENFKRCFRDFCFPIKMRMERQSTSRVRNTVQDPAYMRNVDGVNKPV
Kind of data set: radioligand binding, κ opioid receptor, guinea pig cerebellum. Conditions: tritium-labeled U69593.

For a further data set, the system named is mouse vas deferens. The experiment in a line: electrically stimulated mouse vas deferens (MVD) ED50. The class given is cell-based. Conditions: ED50, inhibition of electrically induced contractions.
For the next data set, the system named is guinea pig ileum. The experiment in a line: electrically stimulated guinea pig ileum (GPI) ED50. The class given is cell-based. To be noted: Cavia porcellus; ED50, inhibition of electrically induced contractions. An outline of the steps:
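Isolated ileum segments held under 1 g tension, electrically stimulated with 0.1-Hz square-wave pulses, 1 msec duration, supramaximal voltage. ED50 extrapolated from concentration–response curves.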

The subject of data set [1] is seizure-like convulsions in mice. The experiment in a line: mouse seizure-like convulsions. The format is in vivo. An outline of the steps: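 Male CD-1 mice (Charles River, Raleigh, N.C.) of 20-25 g were dosed and watched for one hour to detect seizure-like convulsions mediated by central delta receptors. An event was counted when clonic or tonic/clonic muscle movements involved the whole body, usually followed by brief catalepsy, judged by no attempt to withdraw front paws from a bar 2-3 inches above the floor.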

For data set [2], the system named is tail-pinch antinociception in mice. Conditions: in vivo; for mouse TP % MPE: iv, 10 mg/kg.
Another data set can be described thus: rat analgesia. The class given is in vivo.

T1 sequence (P33533 whole entry): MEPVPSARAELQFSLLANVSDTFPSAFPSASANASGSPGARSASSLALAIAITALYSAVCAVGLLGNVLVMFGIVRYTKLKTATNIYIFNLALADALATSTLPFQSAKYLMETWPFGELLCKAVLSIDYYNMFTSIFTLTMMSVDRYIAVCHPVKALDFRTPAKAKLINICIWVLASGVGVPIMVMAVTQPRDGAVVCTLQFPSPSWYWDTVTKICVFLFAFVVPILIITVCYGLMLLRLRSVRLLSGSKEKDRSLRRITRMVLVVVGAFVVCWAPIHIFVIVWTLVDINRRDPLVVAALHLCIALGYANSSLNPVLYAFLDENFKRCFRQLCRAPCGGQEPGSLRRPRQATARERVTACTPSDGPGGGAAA

As to `C=CCN1C[C@H](C)N([C@@H](c2cccc(O)c2)c2cccc(C(=O)N3CCCN(CCCCC(=O)OCC)CC3)c2)C[C@H]1C`, the inhibitory constant (Ki) on δ opioid receptor was 2.9 nM; at μ opioid receptor it was 1.25 nM; on κ opioid receptor it was 0.6 nM. Besides, the EC50 was 43.7 nM in the data set on mouse vas deferens and 231 nM in the data set with guinea pig ileum. The same compound returned a Seiz. in data set [1] (10 mg/kg IV) of 0% 10 mg/kg IV.
As to `C=CCN1C[C@H](C)N([C@@H](c2cccc(O)c2)c2cccc(C(=O)N3CCCN(CCC(=O)O)CC3)c2)C[C@H]1C`, the Ki on δ opioid receptor was found to be 3.03 nM; on μ opioid receptor, 3.89 nM; at κ opioid receptor, 9.85 nM. Moreover, the EC50 in the data set with mouse vas deferens was 5.39 nM; in the data set with guinea pig ileum, 117 nM. This compound had a Seiz. in data set [1] (10 mg/kg IV) of 0% 10 mg/kg IV.
Consider `C=CCN1C[C@H](C)N([C@@H](c2cccc(O)c2)c2cccc(C(=O)N3CCCN(CCC(=O)OCC)CC3)c2)C[C@H]1C`, for which the figures for the Ki on δ opioid receptor, at μ opioid receptor and at κ opioid receptor were 0.57 nM, 0.55 nM and 1.09 nM, respectively. Further, the EC50 with mouse vas deferens turned out to be 5.58 nM; in the data set with guinea pig ileum, 112 nM. The compound further yielded a Seiz. in data set [1] (10 mg/kg IV) of 30% 10 mg/kg IV.
For the compound `C=CCN1C[C@H](C)N(C(c2ccc(C(=O)N3CCCN(CCCC(=O)OCC)CC3)cc2)c2cccc(O)c2)C[C@H]1C` (stereo partly shown), the inhibition constant Ki on δ opioid receptor came out at 1.9 nM; at μ opioid receptor it was 2.6 nM; at κ opioid receptor it was 1.2 nM. Also, the EC50 came to 1.44 nM in the data set with mouse vas deferens and 526 nM in the data set with guinea pig ileum. This compound returned a Seiz. in data set [1] (10 mg/kg IV) of 0% 10 mg/kg IV.
`C[C@@H]1CN([C@@H](c2cccc(O)c2)c2cccc(C(=O)N3CCCN(CCC(=O)O)CC3)c2)[C@@H](C)CN1Cc1ccccc1`: the inhibitory constant (Ki) at δ opioid receptor worked out at 4 nM; on μ opioid receptor it was 3.9 nM; at κ opioid receptor it was 3830 nM. Further, the results for the EC50 with mouse vas deferens and in the data set with guinea pig ileum were 0.52 nM and 52.2 nM, respectively. The Seiz. in data set [1] (20 mg/kg IV) and in data set [1] (200 mg/kg PO) was 0% 200 mg/kg PO 0% 20 mg/kg IV each time.
For the compound `C=CCN1C[C@H](C)N(C(c2cccc(O)c2)c2cccc(C(=O)N3CCCN(C)CC3)c2)C[C@H]1C` (stereo partly shown), the Ki on δ opioid receptor worked out at 5.45 nM; at μ opioid receptor, 1.58 nM; on κ opioid receptor it was 1.93 nM. This compound also showed an EC50 with mouse vas deferens of 26.3 nM. Also, the Seiz. in data set [1] (10 mg/kg IV) is given as 0%. In addition, in data set [2], the “mouse TP % MPE” value was 0% 10 mg/kg IV (mouse TP- 54% MPE; no rat analg.). The rat analg. result in the data set “rat analgesia” was “no rat analg”.
`CN1CC[C@]23c4c5ccc(O)c4O[C@H]2[C@@H](O)C=C[C@H]3[C@H]1C5` [morphine, reference compound]: the “maximum time of response in tail-pinch assay” value in data set [2] (mouse) was 20 s.
Turning to `CCOC(=O)CCN1CCCN(C(=O)c2cccc([C@H](c3cccc(O)c3)N3C[C@@H](C)N(Cc4ccccc4)C[C@@H]3C)c2)CC1`, the results for the Ki on δ opioid receptor, at μ opioid receptor and on κ opioid receptor were 1.2 nM, 0.75 nM and 2.98 nM, respectively. Also, the values for the EC50 in the data set with mouse vas deferens and in the data set with guinea pig ileum were 1.5 nM and 836 nM, respectively. In addition, the Seiz. in data set [1] (10 mg/kg IV) is on record as 80% 10 mg/kg IV (42% MPE mouse TP). Further, in data set [2], the “mouse TP % MPE” value is recorded as 80% 10 mg/kg IV (42% MPE mouse TP).
On to `C=CCN1C[C@H](C)N([C@@H](c2cccc(O)c2)c2cccc(C(=O)N3CCCN(CCCC(=O)O)CC3)c2)C[C@H]1C`, for which the Ki at δ opioid receptor is 2.75 nM; at μ opioid receptor, 5.57 nM; at κ opioid receptor, 16.3 nM. The EC50 in the data set with mouse vas deferens turned out to be 2.2 nM; in the data set with guinea pig ileum, 186 nM. The same compound yielded a Seiz. in data set [1] (10 mg/kg IV) of 0% 10 mg/kg IV.
For `C=CCN1C[C@H](C)N([C@@H](c2cccc(O)c2)c2cccc(C(=O)N3CCCN(CCCC(=O)OCC)CC3)c2)C[C@H]1C`, the Ki at δ opioid receptor was found to be 1.66 nM; on μ opioid receptor it was 1.76 nM; on κ opioid receptor it was 1.22 nM. The EC50 with mouse vas deferens turned out to be 22.6 nM; in the data set on guinea pig ileum, 198 nM. The same compound yielded a Seiz. in data set [1] (10 mg/kg IV) of 0% 10 mg/kg IV.

By Ki is commonly meant the equilibrium dissociation constant of an inhibitor or competing ligand from its target. A high value points to a looser hold on the target. Broadly, the EC50 is the concentration needed to bring the measured effect to its halfway point. Higher therefore signals weaker potency.

The record behind these values is patent US7683168B2, “Compositions of novel opioid compounds and method of use thereof” (priority 2005, dated 2010).
